The record followed here is ChEMBL document CHEMBL1143735, “Synthesis, anti-HIV activity, and resistance profile of thymidine phosphonomethoxy nucleosides and their bis-isopropyloxymethylcarbonyl (bisPOC) prodrugs” (Bioorg Med Chem, 2007).

Data set [1] is described as follows: Cytotoxicity against MT2 cells. The data set is classed as cell-based. The following applies: human.
Data set [2] deals with Human immunodeficiency virus 1. The experiment in a line: Inhibition of virus-induced cytopathic effect in wild type HIV 3a infected MT2 cells after 5 days. Format: functional, organism-based. Particulars: Human immunodeficiency virus 1, 3a, MT2, 120 h. Background: Protection from cytopathic effect is a common read-out in antiviral testing.
Data set [3] concerns the target Human immunodeficiency virus type 1 reverse transcriptase (Human immunodeficiency virus 1, UniProt Q72547). In words: Inhibition of HIV1 reverse transcriptase.
The test system of data set [4] is Human immunodeficiency virus 1. The experiment in a line: Antiviral activity against HIV with reverse transcriptase M184V mutation assessed as reduction of potency relative to wild type. Format: functional.
In data set [5] the test system is Human immunodeficiency virus 1. In words: Antiviral activity against HIV1 with reverse transcriptase 6TAM mutation assessed as reduction of potency relative to wild type. Format: functional.
The subject of data set [6] is Human immunodeficiency virus 1. The experiment in a line: Antiviral activity against HIV1 with reverse transcriptase K65R mutation assessed as reduction of potency relative to wild type. Format: functional.

Structures are written as SMILES.

`Cc1cn([C@H]2CC[C@@H](OCP(=O)(OCOC(=O)OC(C)C)OCOC(=O)OC(C)C)O2)c(=O)[nH]c1=O`: the CC50 in data set [1] is > 50 µM. The EC50 in data set [2] was 1.3 µM.

`Cc1cn([C@H]2C[C@H](N=[N+]=[N-])[C@@H](CO)O2)c(=O)[nH]c1=O` [ZIDOVUDINE]: in data set [1], the CC50 is > 200 µM.

For the compound `Cc1cn([C@H]2CC[C@@H](CO)O2)c(=O)[nH]c1=O`, the EC50 in data set [2] is > 200 µM. The IC50 in data set [3] turned out to be 0.12 µM.

`Cc1cn([C@H]2C=C[C@@H](OCP(=O)(O)O)O2)c(=O)[nH]c1=O`: the CC50 in data set [1] is > 500 µM. Besides, the Fold change in data set [4] was 1.1; in data set [5], 13; in data set [6], 5.2. The compound further returned an EC50 in data set [2] of 26 µM. This compound showed an IC50 in data set [3] of 0.39 µM.

Take `C[C@H](Cn1cnc2c(N)ncnc21)OCP(=O)(O)O` [TENOFOVIR ANHYDROUS]: in data set [1], the CC50 was > 200 µM. In addition, the Fold change is 0.7 in data set [4], 8.8 in data set [5] and 4.3 in data set [6]. This compound also had an IC50 in data set [3] of 0.38 µM.

The compound `Cc1cn([C@H]2C=C[C@@H](CO)O2)c(=O)[nH]c1=O` [STAVUDINE] had a CC50 in data set [1] of 286 µM. Besides, the Fold change in data set [4] is given as 1.2; in data set [5], 5.5; in data set [6] it was 2.3. Also, the EC50 in data set [2] amounted to 4.8 µM. Also, half-maximal inhibition in data set [3] (IC50) required 0.06 µM.

Regarding `Cc1cn([C@H]2CC[C@@H](OCP(=O)(O)O)O2)c(=O)[nH]c1=O`, the CC50 in data set [1] was > 500 µM. The EC50 in data set [2] is > 200 µM. In addition, in data set [3], the midpoint of inhibition, the IC50, lay at 5.4 µM.

With `CC(C)OC(=O)OCOP(=O)(CO[C@H](C)Cn1cnc2c(N)ncnc21)OCOC(=O)OC(C)C.O=C(O)/C=C/C(=O)O` [TENOFOVIR DISOPROXIL FUMARATE], the CC50 in data set [1] was > 50 µM. In data set [2], this compound yielded a concentration for a half-maximal effect (EC50) of 0.015 µM. Further, the Fold change in data set [5] is listed as 7.7; in data set [6] it was 3.1.

For the compound `Cc1cn([C@H]2C=C[C@@H](COP(=O)(O)OP(=O)(O)OP(=O)(O)O)O2)c(=O)[nH]c1=O` [STAVUDINE TRIPHOSPHATE], the CC50 in data set [1] is > 500 µM. Besides, the Fold change is given as 1.1 in data set [4], 13 in data set [5] and 5.2 in data set [6]. The EC50 in data set [2] was 26 µM. In data set [3], the half-maximal inhibitory concentration (IC50) was found to be 0.39 µM.

For `Cc1cn([C@H]2CC[C@@H](OCP(=O)(O)O)O2)c(=O)[nH]c1=O.O=P(O)(O)OP(=O)(O)O`, the 50% cytotoxic concentration (CC50) in data set [1] is > 500 µM. For the same compound, the EC50 in data set [2] is > 200 µM. In data set [3], the IC50 amounted to 5.4 µM.

For `Cc1cn([C@H]2C=C[C@@H](OCP(=O)(OCOC(=O)OC(C)C)OCOC(=O)OC(C)C)O2)c(=O)[nH]c1=O`, half-maximal cytotoxicity in data set [1] (CC50) was put at 10 µM. This compound also returned an EC50 in data set [2] of 0.91 µM.

Turning to `Cc1cn([C@H]2C[C@H](N=[N+]=[N-])[C@@H](OCP(=O)(O)O)O2)c(=O)[nH]c1=O`, in data set [2], the EC50 is > 200 µM.

One may read the CC50 as the concentration giving 50% cytotoxicity. A low value points to greater toxicity to the cells. Broadly, the EC50 is the concentration needed to bring the measured effect to its halfway point. Read a high EC50 as weaker potency. For orientation: IC50 means the midpoint of a concentration-inhibition curve. High values mean weaker potency in that assay, low ones greater potency in that assay.
